Laboratory results as given in PMC11513920, “Building Metabolically Stable and Potent Anti-HIV Thioether-Lipid Analogues of Tenofovir Exalidex: A thorough Pharmacological Analysis” (Journal of Medicinal Chemistry, 2024).
Where “and” joins values, the source holds several entries; their conditions need not be identical. Equal entries are not always repeated.

What was measured:
[1] = Human liver microsome stability; conditions: for remaining at 2 h, 3 μM / half-life at 3 μM: human, microsomes; for remaining at 2 h, 3 μM: HLM % remaining, relative percent remaining of prodrug at 120 min; for half-life at 3 μM: HLM t1/2, HLM 1 mg/mL
Protocol: (§1) Human liver microsomes (HLMs, 20 mg/mL) and CD-1 mouse liver microsomes (MLMs, 20 mg/mL) were purchased from Xenotech. NADPH was purchased from Sigma-Aldrich and prepared in 10 mM stock solutions of distilled H2O (Invitrogen UltraPure). […] Test compounds and positive controls were initially dissolved in MeOH to make 10 mM stock solutions. Sample solutions were then further diluted in 70/30 MeOH/H2O to 500 μM. Next, the reactions were prepared by mixing human or mouse liver microsomes (55 μL) with potassium phosphate buffer (100 mM, 928 μL) in 1.5 mL Eppendorf tubes. The test compounds (6.6 μL of 500 μM solution) were subsequently added to the suspensions, and the reaction mixtures were incubated at 37 °C for 5 min. Afterward, the liver microsome reactions were initiated with 110 μL of 10 mM NADPH and further incubated at 37 °C for the designated time course of the study. […] Each test compound was run in tandem with positive and negative control experiments for quality assurance. Positive control reactions were conducted at a final volume of 550 μL for a single run of each time point.
(§2) For both LM and plasma stability assays, each data point was analyzed in duplicate using in-between blank washes to avoid carry over and to equilibrate the column for the subsequent runs. Averages of these duplicate for individual compounds at each time point were then normalized to the data at 0 min, representing 100% test compound remaining or 0% metabolism. Half-lives (t1/2) were calculated by plotting ln of % test compound remaining versus time and performing linear regression to determine slope.
(§3) Metabolic Stability Assays
(§4) Liver Microsome Stability
(§5) Liver Microsome Stability Assay Setup Example
(§6) Quenching Mixture: 100 µL MeOH with ISTD (2 µM d5-7-ethoxycoumarin).
(§7) Final Volume After Quenching: 200 µL (100 µL from reaction mixture + 100 µL quencher
(§8) solution; ISTD final concentration of 1.0 µM).

[2] = Mouse liver microsome stability; conditions: CD-1, mouse, microsomes
Protocol: as §1, §2, §3, §4, §5, §6, §7, §8

Human plasma stability = assay type: in vitro ADME; conditions: for remaining at 4 h, 3 μM / half-life at 3 μM: both sexes, human, plasma; for half-life at 3 μM: 37 °C, 240 min course, read-out: human plasma t1/2
Protocol: (§9) Human plasma (lithium heparin (LiHep) mixed, gender pooled, 0.2 μm filtered) and mouse plasma (BALB/C, LiHep mixed, male pooled, 0.2 μm filtered) were purchased from BioIVT. Procaine (Sigma-Aldrich) served as a positive control for both human and mouse plasma experiments. […] Next, the human or mouse plasma (994 μL) was aliquoted into 1.5 mL Eppendorf tubes with duplicates (reactions A and B) being prepared for each compound. The plasma was then incubated at 37 °C for 10 min. […] This procedure provided duplicate experiments with a final volume of 1000 μL (<0.2% organic solvent content) and a final test compound concentration of 3 μM. Aliquots (100 μL) were removed from each reaction mixture at 0, 30, 60, 120, and 240 min time intervals and quenched with 150 μL of cold ISTD solution (2 μM 7-ethoxy-d5-coumarin in MeOH). […] The positive control reaction was conducted at a final volume of 1000 μL for a single run of each time point. Finally, the negative control experiment was conducted with test compounds in Dulbecco’s phosphate buffered saline without calcium and magnesium (DPBS, Fisher Scientific, 143 μL) and analyzed at the 240 min time point.
(§10) Plasma Stability Assay Setup Example
(§11) Test Compound: 994 µL Human or Mouse Plasma + 6.0 µL TC (500 µM, Vial A).
(§12) 994 µL Human or Mouse Plasma + 6.0 µL TC (500 µM, Vial B).
(§13) Positive Control: 994 µL Human or Mouse Plasma + 6.0 µL Procaine (500 µM).
(§14) Negative Control: 142 µL DPBS (1X, pH 7.1-7.3) + 0.9 µL TC (500 µM).
(§15) Quenching Mixture: 150 µL MeOH with ISTD (2 µM d5-7-ethoxycoumarin).
(§16) Final Volume After Quenching: 250 µL (100 µL from reaction mixture and 150 µL quencher
solution; ISTD final concentration of 1.2 µM).
Human Plasma Stability of Compound 2a at 37 °C
Figure S29. In vitro human plasma stability of 2a (5 points over 240 min) with procaine serving

Mouse plasma stability = assay type: in vitro ADME; conditions: for mouse plasma t1/2: 3 μM, 37 °C, 240 min course; for remaining at 4 h, 3 μM / half-life at 3 μM: male, BALB/C, mouse, plasma; for half-life at 3 μM: read-out: in vitro mouse plasma stability t1/2
Protocol: as §9, §10, §11, §12, §13, §14, §15, §16
solution; ISTD final concentration of 1.2 µM). […]

HepaRG cellular uptake = conditions: human, HepaRG Cmax, 20 μM, HSA formulation 5:1, recorded after 3 h incubation
From the text: (§17) Naturally, due the metabolic complexity of HepaRG cells, we specifically analyzed prodrug cellular uptake and stability, as represented by Cmax and intrinsic clearance (Clint,u) accordingly (Figure 7 and Table 9).
(§18) The HepaRG cell line (HPRGC10, Thermo Fisher Scientific) was used to evaluate the cellular permeability and metabolic stability for select final compounds in vitro. The cells were initially thawed with working media composed of HepaRG Thaw, Plate, & General Purpose Medium Supplement (HPRG670), Williams Medium E (100 mL), and GlutaMax (1 mL), all purchased from Thermo Fisher Scientific. […] After the thawing medium was aspirated from each well, the cells were cultured for an additional 6 days with working media consisting of HepaRG Maintenance/Metabolism Medium Supplement (HPRG720), Williams Medium E (500 mL), and GlutaMax (1 mL), all purchased from Thermo Fisher Scientific. Upon completing the 7-day culture period, HepaRG cells were plated in enough wells to allow for duplicate analysis of prodrugs in two independent cellular uptake or metabolic stability experiments. All studied compounds were formulated with human serum albumin (HSA, 5:1 compound to HSA molar ratio) and subsequently diluted to a 20 μM final concentration with assay medium composed of serum-free INVITROGRO HI Medium and TORPEDO Antibiotic Mix purchased from BioIVT. For cellular uptake determinations, the maintenance/metabolism medium was first aspirated from each well, and then the plated cells were spiked with 1.0 mL of test compound stock solution. Subsequently, the plate was incubated at 37 °C under 5% CO2 environment over the desired time course (seven data points/compound). Blank wells not treated with prodrug were included in assay runs as controls and initial time points (0 min). At each time point, the test compound solution was removed from the appropriate wells, and the plated cells were washed with 1.0 mL of DPBS twice. The HepaRG cells were then extracted with 500 μL of cold ISTD solution (1 μM 7-ethoxy-d5-coumarin in 70/30 MeOH/H2O), and the quenched aliquots were centrifuged at 15,000 g for 10 min at 4 °C. […] After obtaining prodrug Cmax and Tmax values from the cellular uptake assay, HepaRG metabolic stability was then assessed. Following the initial 7-day culture procedure, the maintenance/metabolism medium was aspirated from each well, and the plated cells were spiked with 1.0 mL of test compound stock solution. […] The test compound solution was then removed from each well and replaced with untreated dilution medium (i.e., serum-free INVITROGRO HI Medium and TORPEDO Antibiotic Mix), initializing the stability determination. The HepaRG plate was once more incubated at 37 °C under 5% CO2 atmosphere over the desired time course (nine data points/compound), and sample preparation and analysis were handled in identical fashion to cellular uptake experiments.

HepaRG cells = experiment: HepaRG cellular uptake; conditions: for mean prodrug concentration in HepaRG cells: 20 µM; for HepaRG Cmax: 20 μM, HSA formulation 5:1, recorded after 3 h incubation
From the text: as §17, §18

[3] = HepaRG cellular metabolic stability; conditions: human, other cell line; for hepatocyte CLint at 20 μM: HepaRG Clint,u, calculated from cellular t1/2; for half-life at 20 μM: HepaRG t1/2, after 3 h loading at 20 μM, 37 °C
[4] = Cellular cytotoxicity (cell viability, CellTiter 96 or resazurin); conditions: human, CC50, HEK293T cells, compounds formulated with HSA (5:1)
Protocol: Second, HIV IC50 and cellular CC50 were determined with a pseudoviral, whole (HEK293T) cell, nonreplicative HIV assay, using the HIV-1 subtype C strain MJ4 (refer to Experimental Methods). To account for the unique amphiphilic properties of TXL and the novel HTP-based prodrugs, all compounds were formulated in a human serum albumin (HSA) solution (5:1 drug:protein).
Assessment of cytotoxicity and antiviral activity of all final compounds in vitro was conducted according to previously reported procedures.[39] In summary, human embryonic kidney (HEK293T) cells maintained in high glucose (25 mM), Dulbecco’s modified Eagle’s medium (DMEM) supplemented with fetal bovine serum (10%), sodium pyruvate (1 mM), L-glutamine (2 mM), HEPES (25 mM), and gentamicin (50 μg/mL) were used for determinations. The cells were maintained in an incubator at 37 °C under 5% CO2 in a humidified atmosphere. For both cytotoxicity and antiviral screening, all compounds were evaluated in duplicate in at least two independent experiments. All final compounds were formulated with human serum albumin (HSA, 5:1 compound to HSA molar ratio) and subsequently diluted with complete DMEM to 200 μM. Fifty microliters of test compound serial dilutions (3-fold) were prepared in 96-well culture plates, after which 50 μL of HEK293T cells (2 × 10^4 cells/well) was added. […] Cytotoxicity was then assessed by quantifying cell viability using the CellTiter 96 Aqueous One Solution Cell Proliferation Assay (Promega, Madison, WI) or resazurin sodium salt (cat# R7017, Merck, Darmstadt, Germany).[61] […] Antiviral activity was then assessed using a single-cycle, nonreplicating, envelope deleted HIV pseudoviral in vitro assay.[62],[63] The assay relies on the introduction of the firefly luciferase gene into HEK293T cells through infection with HIV-like viral particles, containing Reverse Transcriptase (RT) and Integrase (IN) from the HIV-1 subtype C strain MJ4.[64] The expression of the luciferase in the cells is directly proportional to the level of infection by the HIV-like viral particles and can be used to assess the inhibition of HIV-1 RT and IN. To evaluate anti-HIV activity, 3-fold serial dilutions of all final compounds were prepared in 50 μL over the noncytotoxic concentration range (as determined from the cytotoxicity screens described above) in 96-well culture plates. HEK293T cells (2 × 10^4 cells/well) and HIV-like viral particles, standardized to produce a luminescence signal of 1 × 10^6 relative light units (RLUs) in the growth medium only control, were combined, and 50 μL was added to the wells containing serially diluted test compounds. […] The expression of luciferase was subsequently quantified by adding 100 μL of the Bright-Glo Luciferase Assay substrate (Promega, Madison, WI) to each well of the 96-well plates. After incubation at rt for 3 min, luminescence was quantified on the GloMax Explorer Multimode Microplate Reader (Promega, Madison, WI).

[5] = 3 μM compound, NADPH, 37 °C, 120 min course
[6] = relative percent remaining at 240 min

| SMILES | remaining at 2 h, 3 μM [1] | half-life at 3 μM [1, 5] | half-life at 3 μM [2] | remaining at 2 h, 3 μM [2] | remaining at 4 h, 3 μM (Human plasma stability; [6]) | half-life at 3 μM (Human plasma stability) | mouse plasma t1/2 (Mouse plasma stability) | remaining at 4 h, 3 μM (Mouse plasma stability; [6]) | half-life at 3 μM (Mouse plasma stability) | Cmax at 3 h, 20 μM (HepaRG cellular uptake) | mean prodrug concentration in HepaRG cells (HepaRG cells; 0.5 h) | mean prodrug concentration in HepaRG cells (HepaRG cells; 1 h) | mean prodrug concentration in HepaRG cells (HepaRG cells; 2 h) | mean prodrug concentration in HepaRG cells (HepaRG cells; 3 h) | mean prodrug concentration in HepaRG cells (HepaRG cells; 5 h) | mean prodrug concentration in HepaRG cells (HepaRG cells; 7 h) | HepaRG Cmax (HepaRG cells) | hepatocyte CLint at 20 μM [3] | half-life at 20 μM [3] | CC50 at 48 h [4] | also measured |
| --- | --- | --- | --- | --- | --- | --- | --- | --- | --- | --- | --- | --- | --- | --- | --- | --- | --- | --- | --- | --- | --- |
| C[C@H](Cn1cnc2c(N)ncnc21)OCP(=O)(O)OCCCSCCCCCCCCCCCCc1ccc(F)cc1.N [16g] | 69% | > 2 h | > 2 h | 88% | > 95% | > 4 h | > 4 h | > 95% | > 4 h | 210 ng/mL | 124.04 ng/mL | 162.75 ng/mL | 178.18 ng/mL | 209.81 ng/mL | 203.98 ng/mL | 229.08 ng/mL | 209.8 ± 0.2 ng/mL | 27 µL/min/1e6 cells | 0.783 h | > 100 µM |  |
| C[C@H](Cn1cnc2c(N)ncnc21)OCP(=O)(O)OCCCSCCCCCCCCCCCCC1CCCCC1.N [16h] | 85% | > 2 h | > 2 h | > 95% | > 95% | > 4 h | > 4 h | 71% | > 4 h | 1410 ng/mL | 896.16 ng/mL | 911.53 ng/mL | 1178.12 ng/mL | 1412.37 ng/mL | 1533.37 ng/mL | 1616.17 ng/mL | 1412.4 ± 1.5 ng/mL | 18 to 19 µL/min/1e6 cells | 1.12 to 1.18 h | 48 µM |  |
| CCCCCCCCCCCCCCCCSCCCOP(=O)(O)CO[C@H](C)Cn1cnc2c(N)ncnc21.N [2a] |  |  | > 2 h | > 95% | 95% | > 4 h | > 4 h | 95% | > 4 h | 828 ± 0.2 ng/mL | 467.27 ng/mL | 530.17 ng/mL | 676.9 ng/mL | 827.97 ng/mL | 1004.64 ng/mL | 994.36 ng/mL |  | 14.1 µL/min/1e6 cells | 1.49 ± 0.00667 h | 50 µM | HLM t1/2 ([1]; HLM 1 mg/mL, 3 μM compound, NADPH, 37 °C, 120 min course): 0.7 h and 0.695 ± 0.0383 h; human plasma % remaining (Human plasma stability; [6]): > 95%; mouse plasma % remaining (Mouse plasma stability; [6]): > 95% |
